The text below walks through data of patent US20080287490A1, “Bis-pyridino containing compounds for the use in the treatment of CNS pathologies” (UNIVERSITY OF KENTUCKY RESEARCH FOUNDATION, priority 2005, published 2008).

Where two headings read alike, the source gives them in different places. Some results are limits rather than exact numbers.

The test system of assay [1] is nAChR subtypes mediating nicotine-evoked [^3H]-dopamine overflow.
Procedure: [^3H]-Dopamine overflow from superfused striatal slices. […] Striatal coronal slices (500 μm, 4-6 mg) were obtained and incubated for 30 minutes in Krebs' buffer (in mM: 118 NaCl, 4.7 KCl, 1.2 MgCl2, 1 NaH2PO4, 1.3 CaCl2, 11.1 glucose, 25 NaHCO3, 0.11 L-ascorbic acid and 0.004 disodium EDTA, pH 7.4, saturated with 95% O2/5% CO2) in a metabolic shaker at 34° C. Slices were incubated with 0.1 μM (final concentration) of [^3H]-dopamine during the latter 30 minutes of the 60-minute incubation period. Each slice was transferred to a glass superfusion chamber maintained at 34° C. and superfused (1 ml/min) with Krebs' buffer containing nomifensine (10 μM) and pargyline (10 μM) to inhibit [^3H]-dopamine reuptake after release into the extracellular space, ensuring that [^3H]-overflow primarily represented [^3H]-dopamine. Sample collection (5-minute; 5 mL) began after 60 minutes of superfusion. […] At the end of the experiment, each slice was solubilized, and the [^3H]-content of the tissue determined. Release during each minute was normalized for total tissue [^3H]-content. Analog-induced intrinsic activity and inhibitory activity were determined using slices from the same rat (repeated-measures design).
The amount of [^3H] in each sample was calculated by dividing the total [^3H] collected in each sample by the total in the tissue at the time of sample collection (defined as fractional release). […] Data were analyzed by weighted, least squares regression analysis of the sigmoidal concentration-effect curves to obtain EC50 and IC50 values.
Striatal slices (500 μm, 4-6 mg) were incubated for 30 minutes in Krebs' buffer (in mM: 118 NaCl, 4.7 KCl, 1.2 MgCl2, 1 NaH2PO4, 1.3 CaCl2, 11.1 glucose, 25 NaHCO3, 0.11 L-ascorbic acid and 0.004 disodium EDTA, pH 7.4, saturated with 95% O2/5% CO2) in a metabolic shaker at 34° C. Slices were incubated with 0.1 μM (final concentration) [^3H]DA during the latter 30 minutes of the 60-minute incubation period. Each slice was transferred to a glass superfusion chamber maintained at 34° C. and superfused (1 ml/min) with Krebs' buffer containing nomifensine (10 μM) and pargyline (10 μM) to inhibit [^3H]DA reuptake and metabolism, respectively, after release into the extracellular space, ensuring that [^3H]overflow primarily represents [^3H]DA. Sample collection (5-minute; 5 ml) began after 60 minutes of superfusion. […] Thus, the ability of these analogs to elicit intrinsic activity (evoke [^3H]DA overflow) was determined. At the end of the experiment, each slice was solubilized and [^3H]content of the tissue determined. Release during each minute was normalized for total [^3H]content of the slice. Analog-induced intrinsic activity and inhibitory activity were determined using slices from the same rat (repeated-measures design).
Fractional release was calculated by dividing the total tritium collected in each sample by the total tritium in the tissue at the time of sample collection. […] Typically, data were analyzed by weighted, least squares regression analysis of sigmoidal concentration-effect curves to obtain EC50 and IC50 values.
The target in assay [2] is nAChR mediating nicotine-evoked [^3H]DA release (α3β2* receptor subtype). Format: cell-based, rat. As to conditions: read-out: IC50, S-(−)-nicotine-evoked [^3H]DA release. As to the method: Slices were rinsed with 15 mL of fresh buffer and incubated for an additional 30 minutes in fresh buffer containing 0.1 μM [^3H]DA (6 slices/3 ml). Subsequently, slices were rinsed with 15 ml of fresh buffer and transferred to a glass superfusion chamber.
Radioactivity in the superfusate and tissue samples was determined by liquid scintillation spectroscopy. […] Basal [^3H]outflow was calculated from the average of the tritium collected in the two five minute samples just before addition of the bis-alkyl pyridino analog. […] [^3H]Overflow was calculated by subtracting the [^3H]outflow during an equivalent period of prestimulation from the values in samples collected during and after drug exposure. Inasmuch as the radiolabelled compounds were not separated and identified, the tritium collected in superfusate is referred to as either [^3H]outflow or [^3H]overflow, rather than as [^3H]DA.

The target of assay [3] is T1, Rat Striatal Nicotinic Acetylcholine Receptors ([^3H]nicotine binding sites) (Rattus norvegicus, UniProt P09483+P12390).
T1 construct: Striata from two rats were dissected, pooled, and homogenized; from tissue; host or cells: rat striatum membranes
T1 sequence (P09483 31-630): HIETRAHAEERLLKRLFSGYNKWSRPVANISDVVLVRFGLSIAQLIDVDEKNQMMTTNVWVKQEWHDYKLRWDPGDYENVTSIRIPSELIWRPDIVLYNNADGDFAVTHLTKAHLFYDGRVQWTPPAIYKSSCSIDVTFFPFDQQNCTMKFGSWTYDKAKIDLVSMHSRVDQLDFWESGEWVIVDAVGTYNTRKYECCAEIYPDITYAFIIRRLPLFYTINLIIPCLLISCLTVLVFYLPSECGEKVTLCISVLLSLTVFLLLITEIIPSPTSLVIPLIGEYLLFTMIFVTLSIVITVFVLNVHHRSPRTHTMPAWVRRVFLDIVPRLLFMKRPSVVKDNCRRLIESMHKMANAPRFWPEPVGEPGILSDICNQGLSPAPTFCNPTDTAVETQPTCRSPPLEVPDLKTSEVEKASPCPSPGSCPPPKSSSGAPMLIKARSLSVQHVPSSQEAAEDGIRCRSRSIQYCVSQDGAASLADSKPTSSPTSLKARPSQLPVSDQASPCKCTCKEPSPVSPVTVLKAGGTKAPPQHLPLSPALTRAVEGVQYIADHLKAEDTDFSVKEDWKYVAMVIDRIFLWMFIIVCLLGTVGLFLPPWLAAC
T1 sequence (P12390 25-500): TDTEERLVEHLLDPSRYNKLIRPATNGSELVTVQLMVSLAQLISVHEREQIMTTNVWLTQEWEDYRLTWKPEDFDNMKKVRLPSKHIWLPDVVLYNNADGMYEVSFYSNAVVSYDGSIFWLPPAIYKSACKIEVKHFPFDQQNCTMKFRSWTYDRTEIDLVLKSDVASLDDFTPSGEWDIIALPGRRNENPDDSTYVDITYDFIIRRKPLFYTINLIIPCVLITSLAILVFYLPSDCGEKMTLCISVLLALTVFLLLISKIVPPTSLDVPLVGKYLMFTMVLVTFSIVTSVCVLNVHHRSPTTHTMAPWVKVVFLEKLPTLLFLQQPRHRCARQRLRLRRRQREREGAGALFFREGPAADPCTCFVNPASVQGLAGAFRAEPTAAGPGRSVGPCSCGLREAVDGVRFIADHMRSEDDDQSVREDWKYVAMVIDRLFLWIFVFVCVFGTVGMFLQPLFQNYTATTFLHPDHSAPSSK
Put plainly: biochemical. The following applies: read-out: Ki, specific binding of [^3H]-nicotine. As for the experimental part:
Striata from two rats were dissected, pooled, and homogenized with a Tekmar polytron in 10 volumes of ice-cold modified Krebs-HEPES buffer (20 mM HEPES, 118 mM NaCl, 4.8 mM KCl, 2.5 mM CaCl2, 1.2 mM MgSO4, adjusted to pH 7.5). The homogenates were incubated at 37° C. for five minutes and centrifuged at 15,000 g for 20 minutes. The pellet was resuspended in ten volumes of ice-cold MilliQ water, incubated for five minutes at 37° C., and centrifuged at 15,000 g for 20 minutes The second pellet was then resuspended in ten volumes of fresh ice-cold 10% Krebs-HEPES buffer, incubated at 37° C., and centrifuged at 15,000 g for 20 minutes. The latter sequence of resuspension, incubation, and centrifugation was repeated. The pellet was frozen under fresh 10% Krebs-HEPES buffer and stored at −40° C. until assay. Upon assay, the pellet was resuspended in the Krebs-HEPES buffer, incubated at 37° C. for five minutes, and centrifuged at 15,000 g for 20 minutes. The final pellet was resuspended in 3.6 ml ice-cold MilliQ water which provided for approximately 200 μg protein per 100 μl aliquot. Competition assays were performed in duplicate in a final volume of 200 μl Krebs-HEPES buffer containing […] Tris buffer (pH 7.5 at 4° C.). […] After a 90 minute incubation at 4° C., reactions were terminated by dilution of the samples with 3 ml of ice-cold Krebs-HEPES buffer followed immediately by filtration through Whatman GF/B glass fiber filters (presoaked in 0.5% polyethyleneimine) using a Brandel Cell Harvester. Filters were rinsed three times with 3 ml of ice-cold Krebs-HEPES buffer, transferred to scintillation vials, and 5 ml scintillation cocktail (Research Products International Corp., Mt. Prospect, Ill.) added. […] Binding parameters were determined using the weighted, least squares non-linear regression.

For the next assay, the target named is α4β2* nAChRs (Rattus norvegicus, UniProt P09483+P12390).
Sequence of α4β2* nAChRs (P09483 31-630): as the sequence (P09483 31-630) above
Sequence of α4β2* nAChRs (P12390 25-500): as the sequence (P12390 25-500) above
The target of assay [4] is T2, α7-type neuronal nicotinic acetylcholine receptors (Rattus norvegicus, UniProt Q05941).
T2 construct: Rat brain was dissected into the whole brain tissue without cortex, striatum and cerebellum; from tissue; host or cells: rat brain (without cortex, striatum, cerebellum) membranes
T2 sequence (Q05941 23-502): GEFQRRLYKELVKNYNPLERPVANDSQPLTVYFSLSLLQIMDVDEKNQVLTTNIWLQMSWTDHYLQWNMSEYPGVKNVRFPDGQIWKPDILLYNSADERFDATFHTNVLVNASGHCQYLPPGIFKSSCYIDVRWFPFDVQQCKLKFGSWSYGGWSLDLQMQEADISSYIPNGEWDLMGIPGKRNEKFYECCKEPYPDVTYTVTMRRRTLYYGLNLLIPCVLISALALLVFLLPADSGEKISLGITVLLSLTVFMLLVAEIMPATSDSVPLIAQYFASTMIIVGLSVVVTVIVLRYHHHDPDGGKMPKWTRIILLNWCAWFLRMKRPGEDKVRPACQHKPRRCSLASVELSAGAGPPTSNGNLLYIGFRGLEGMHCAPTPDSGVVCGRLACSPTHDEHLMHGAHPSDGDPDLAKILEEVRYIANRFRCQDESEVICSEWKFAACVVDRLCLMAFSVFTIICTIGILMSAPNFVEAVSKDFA
Kind of assay: biochemical. The following applies: rat brain membranes, 2.5 nM [^3H]-MLA; read-out: Ki, [^3H]MLA binding.

[5] abbreviates: read-out: Nicotine-evoked [^3H]DA Overflow IC50, Table 6, mean (standard error).
Where [6] appears, read: read-out: Nicotine-evoked [^3H]DA Overflow IC50, Table 5, mean (95% confidence interval).
The mark [7] stands for this setting: rat striatal slices, nicotine 10 μM.
[8] abbreviates: rat striatal membranes, 3 nM [^3H]-nicotine.

Procedure for α4β2* nAChRs: Whole brain, excluding cortex and cerebellum, was homogenized in 20 ml of ice-cold buffer, containing (in mM): 2 HEPES, 11.8 NaCl, 0.48 KCl, 0.25 CaCl2 and 0.12 MgSO4, pH 7.5. Homogenate was centrifuged (25,000 g, 15 minutes, 4° C.). Pellets were resuspended in 20 ml of buffer and incubated at 37° C., for ten minutes, cooled to 4° C. and centrifuged (25,000 g, 15 minutes, 4° C.). Pellets were resuspended and centrifuged using the same conditions. Final pellets were stored in assay buffer, containing (in mM): 20 HEPES, 118 NaCl, 4.8 KCl, 2.5 CaCl2, and 1.2 MgSO4) pH 7.5 at −70° C. Upon use, final pellets were resuspended in ˜20 ml assay buffer. […] Control was in the absence of analog. […] Incubations proceeded for 60 minutes at room temperature using 96-well plates and were terminated by harvesting on Unifilter-96 GF/B filter plates presoaked in 0.5% polyethylenimine, using a Packard FilterMate harvester.
After washing five times with 350 μl ice-cold assay buffer, filter plates were dried (60 minutes, 49° C.), bottom-sealed, and filled with Packard's MicroScint 20 cocktail (40 μl/well). After 60 minutes, filter plates were top-sealed, and radioactivity determined using a Packard TopCount. Protein concentrations were determined using bovine serum albumin as the standard.
Whole brain was homogenized in 20 ml of ice-cold buffer (in mM: 2 HEPES, 11.8 NaCl, 0.48 KCl, 0.25 CaCl2, and 0.12 MgSO4, pH 7.5). Homogenates were centrifuged (25,000 g, 15 minutes, 4° C.). Pellets were resuspended in 20 ml of buffer and incubated at 37° C., for 10 minutes, cooled to 4° C. and centrifuged (25,000 g, 15 minutes, 4° C.). Pellets were resuspended and centrifuged again using the same conditions. Final pellets were stored at −70° C. in assay buffer (in mM: 20 HEPES, 118 NaCl, 4.8 KCl, 2.5 CaCl2, and 1.2 MgSO4, pH 7.5). Upon use, final pellets were resuspended in ˜20 ml assay buffer. […] Control was in the absence of analog. […] Incubation proceeded for 60 minutes at room temperature using 96-well plates and was terminated by harvesting on Unifilter-96 GF/B filter plates, presoaked in 0.5% polyethylenimine, using a Packard FiterMate harvester. After washing 5× with 350 μl ice-cold assay buffer, filter plates were dried (60 minutes, 49° C.), bottom-sealed, and filled with Packard's MicroScint 20 cocktail (40 μl/well). After 60 minutes, filter plates were top-sealed, and radioactivity determined. Protein concentration was determined using BSA as the standard.

Consider `CCCCCCCCCCCC[n+]1ccc2c(c1)[C@@H]1[C@H](CC2)CCN1C` [ACDD], for which, in assay [1] (setting [5]), the IC50 was determined as 220 nM.

In the case of `CCCCCCCCC[n+]1cccc2c1CCC1CCN(C)C21` (stereo not drawn) [BCN], the IC50 in assay [1] (setting [5]) turned out to be 310 nM. The same measure, in the same setting: in the case of `CCCCCCCCCCC[n+]1cccc2c1CCC1CCN(C)C21` (stereo not drawn) [BCU] it was 40 nM. Turning to `CO[C@H]1CC=C2CCN3CCC4=C(CC(=O)OC4)[C@]23C1` [DHβE, dihydro-β-erthyroidine, reference compound], the IC50 in assay [2] turned out to be 1 µM. Also, the Ki (as a rule, a measure of affinity in units of concentration, obtained from inhibition or displacement) in assay [3] worked out at 0.15 µM.

At α4β2* nAChRs, `CCCCCCCCCCCC[n+]1cccc(C2CCCN2C)c1` (stereo not drawn) [NDDNI] came in with a Ki of 0.14 µM. Besides, the “potency relative to DHβE as inhibitor of nAChRs mediating nicotine-evoked dopamine release” value in assay [1] is “at least two orders of magnitude more potent”. Further, the IC50 in assay [1] (read-out: IC50, inhibition of nicotine-evoked [^3H]dopamine release/overflow) is 9 nM.

On to `CCCCCCCCCCCC[n+]1ccccc1` [NDDPI], for which, in assay [1] (setting [6]), the IC50 is 260 nM. The same measure, in the same setting: in the case of `CCCCCCCCCCCCCCCCCCCC[n+]1ccccc1` [NEcPB] it was 120 nM. Consider `CCCCCCCC[n+]1cccc(C)c1` [NOPiI], for which, in assay [1] (read-out: Nicotine-evoked [^3H]DA Overflow IC50, Table 9, mean (standard error)), the IC50 was found to be 1000 nM.

Regarding `CCCCCCCCCCCCCCC[n+]1ccccc1` [NPDPB], at α4β2* nAChRs (read-out: [^3H]Nicotine Binding Ki, Table 5, mean (95% confidence interval)), the Ki amounted to 38 µM. In addition, the IC50 in assay [1] (setting [6]) was found to be 320 nM. Regarding `c1ccc2c[n+](CCCCCCCCCC[n+]3ccc4ccccc4c3)ccc2c1` [bIQDI, N,N′-Decane-1,10-diyl-bis-isoquinolinium Diiodide], the Ki in assay [4] is 5.5 µM. Besides, the IC50 in assay [2] (setting [7]) was determined as 2.62 µM.

For the compound `c1ccc2c[n+](CCCCCCCCC[n+]3ccc4ccccc4c3)ccc2c1` [bIQNB, N,N′-Nonane-1,9-diyl-bis-isoquinolinium Dibromide], the Ki in assay [4] is 13.1 µM; in assay [3] (setting [8]), over 100 µM. Besides, in assay [2] (setting [7]), the IC50 was found to be 1.61 µM. Take `CN1CCC[C@H]1c1ccc[n+](CCCCCC[n+]2cccc([C@@H]3CCCN3C)c2)c1` [bNHxI, N,N′-Hexane-1,6-diyl-bis-nicotinium Diiodide]: the IC50 in assay [2] (setting [7]) is over 100 µM.

Take `CN1CCC[C@H]1c1ccc[n+](CCCCCCCCC[n+]2cccc([C@@H]3CCCN3C)c2)c1` [bNNB, N,N′-Nonane-1,9-diyl-bis-nicotinium Dibromide]: the IC50 in assay [2] (setting [7]) is over 100 µM. Moreover, in assay [3] (setting [8]), the Ki amounted to 4.31 µM.

Take `CN1CCC[C@H]1c1ccc[n+](CCCCCCCC[n+]2cccc([C@@H]3CCCN3C)c2)c1` [bNOI, N,N′-Octane-1,8-diyl-bis-nicotinium Diiodide]: the IC50 in assay [2] (setting [7]) is 19.1 µM. For the same compound, the Ki in assay [3] (setting [8]) was 1.5 µM. The corresponding values for `CN1CCC[C@H]1c1ccc[n+](CCCCCCCCCCC[n+]2cccc([C@@H]3CCCN3C)c2)c1` [bNUB, N,N′-Undecane-1,11-diyl-bis-nicotinium Dibromide] are over 100 µM and 0.37 µM. For `c1cc[n+](CCCCCCCCCC[n+]2ccccc2)cc1` [bPDI, N,N′-Decane-1,10-diyl-bis-pyridinium Diiodide], in assay [2] (setting [7]), the IC50 was over 1 µM. In addition, the Ki in assay [3] (setting [8]) stood at 18.6 µM. Turning to `c1cc[n+](CCCCCC[n+]2ccccc2)cc1` [bPHxI, N,N′-Hexane-1,6-diyl-bis-pyridinium Diiodide], the IC50 in assay [2] (setting [7]) is over 100 µM. For the same compound, the Ki in assay [3] (setting [8]) was found to be 97.8 µM.

As to `c1cc[n+](CCCCCCCCC[n+]2ccccc2)cc1` [bPNB, N,N′-Nonane-1,9-diyl-bis-pyridinium Dibromide], the IC50 in assay [2] (setting [7]) is over 100 µM. The Ki in assay [3] (setting [8]) amounted to 24.1 µM.

Take `c1cc[n+](CCCCCCCC[n+]2ccccc2)cc1` [bPOI, N,N′-Octane-1,8-diyl-bis-pyridinium Diiodide]: the IC50 in assay [2] (setting [7]) was over 1 µM. Besides, the Ki in assay [3] (setting [8]) was determined as 33.9 µM. In the case of `c1cc[n+](CCCCC[n+]2ccccc2)cc1` [bPPeI, N,N′-Pentane-1,5-diyl-bis-pyridinium Diiodide], in assay [2] (setting [7]), the IC50 is over 100 µM. In assay [3] (setting [8]), the Ki is over 100 µM.

As for `c1ccc2c(c1)ccc[n+]2CCCCCCCCCC[n+]1cccc2ccccc21` [bQDI, N,N′-Decane-1,10-diyl-bis-quinolinium Diiodide], the Ki in assay [4] was found to be 7.32 µM. For the same compound, the IC50 in assay [2] (setting [7]) came to 8.99 µM. The corresponding values for `c1ccc2c(c1)ccc[n+]2CCCCCCCC[n+]1cccc2ccccc21` [bQOI, N,N′-Octane-1,8-diyl-bis-quinolinium Diiodide] are 2.01 µM and 10.7 µM.
